# Measured values taken from the NIST ThermoML archive (doi:10.1021/acs.jced.7b00944).
# Numbers after ± are expanded uncertainties.
# Details: 298.2 K, 101.33 kPa, Liquid; for viscosity: Falling or rolling sphere viscometry; for mass density: Vibrating tube method
viscosity [mPa·s],mass density [kg/m3],Structure (SMILES)
0.972 ± 0.12,840.73 ± 6,C=C(C)[C@H]1CC=C(C)CC1 [(R)-1-methyl-4-(1-methylethenyl)cyclohexene]
4.238 ± 0.51,856.25 ± 6.1,"C=CC(C)(O)CCC=C(C)C (stereo not drawn) [3,7-dimethyl-1,6-octadien-3-ol]"
873.6 ± 140,1257.7 ± 6.1,OCC(O)CO [glycerol]
1.04 ± 0.12,786.1 ± 6,CCO [ethanol]
